Values quoted from earlier work in patent publication US12636273B2, “Compositions for pathogenesis-directed therapy and treatments of skin diseases and disorders” (YALE UNIVERSITY, priority 2019, dated 2026).

System: CHILD syndrome skin lesions
Settings: topical application

For `CC(C)CCC[C@@H](C)[C@H]1CC[C@H]2[C@@H]3CC=C4C[C@@H](O)CC[C@]4(C)[C@H]3CC[C@]12C` [cholesterol], the “effect on skin lesions / phenotype” value is listed as “did not correct the phenotype”.
